The text below walks through data of patent US20240199571A1, “THIOPHENE COMPOUND AND APPLICATION THEREOF” (MEDSHINE DISCOVERY INC., priority 2021, published 2024).

One data set addresses human LSD1 (Homo sapiens (Human), UniProt O60341). Put plainly: Experiment 1A: in vitro LSD1 enzyme activity, enzyme-coupled fluorescence (HRP/Amplex Red), H3K4me peptide 20 μM (Wuhan Heyan). It counts as biochemical. The note with it: histone H3K4me peptide 20 μM. On the procedure:
Experiment 1A: Evaluation of Enzyme Activity
Testing unit: Wuhan Heyan Biomedical Technology Co., Ltd.
The purpose of the assay was to test the in vitro inhibitory activity of the compounds against LSD1. The enzyme used in the assay was human LSD1, and the standard substrate was histone H3K4me peptide (20 μM). The activity of the compounds was determined by the enzyme-coupling fluorescent method by the combined detection of H2O2 generated after the reaction of LSD1 by horseradish peroxidase (HRP) and the fluorescent reagent Amplex Red. Starting from 10 μM, the compounds were 3-fold diluted to detect the IC50 values of the compounds at 10 concentrations. The enzyme and substrate were incubated for 30 minutes before the compound was added to the substrate to start the reaction. Fluorescence detector: EnVision, excitation wavelength: Ex/Em=530/590 nM.

A short description of data set [1]: Experiment 3: pharmacokinetic evaluation in CD-1 mice (IV and oral). It counts as in vivo. As to conditions: mouse, plasma; for clearance / half-life / Vd: IV 1 mg/kg; for clearance: read-out: Clearance rate CL; for half-life: read-out: Half life T1/2 (IV, h) (converted); for Vd: read-out: Volume of distribution at steady state Vdss; for bioavailability: PO 2 mg/kg vs IV 1 mg/kg, read-out: Bioavailability F (%); for AUC(0-t): PO 2 mg/kg, read-out: Area under drug-time curve AUC0-last PO; for Cmax: single dose, oral 2 mg/kg, read-out: Peak concentration Cmax. On the procedure: Experiment 3: Pharmacokinetic Evaluation of Compounds
Experimental purpose: To test the pharmacokinetics of compounds in CD-1 mice in vivo
CD-1 mice (male/female, 7 to 9 weeks old, Shanghai SLAC)
The pharmacokinetic characteristics of the compounds in rodents after intravenous injection and oral administration were tested according to the standard protocol. In the experiment, the candidate compound was formulated into clear solutions, and a single intravenous injection and oral administration were given to mice. The vehicle for intravenous injection and oral administration was a mixed vehicle composed of 10% dimethyl sulfoxide and 90% hydroxypropyl β-cyclodextrin with a content of 10%. In this project, four male/female CD-1 mice were used. Two mice were injected intravenously at a dose of 1 mg/kg, and plasma samples were collected at 0.083, 0.25, 0.5, 1, 2, 4, 8, and 24 hours after administration; the other two were administered orally by gavage at a dose of 2 mg/kg, and plasma samples were collected at 0.25, 0.5, 1, 2, 4, 8, and 24 hours after administration. The samples were centrifuged at 3200 g for 10 minutes at 4° C., and plasma samples were obtained by separating the supernatant. A methanol solution containing internal standard with 20 times the volume of the sample was added thereto to precipitate the protein, and the mixture was centrifuged at 12000 g for 15 minutes at 4° C. 50 μL of the supernatant was taken and transferred to a 96-well plate and centrifuged again. The supernatant was taken for sampling. The plasma concentration was quantitatively analyzed using LC-MS/MS analysis method, and pharmacokinetic parameters, such as peak concentration (Cmax), clearance rate (CL), half-life (T1/2), volume of distribution at steady state (Vdss), area under drug-time curve (AUC0-last), bioavailability (F).

For the next data set, the system named is NCI-H1417 cells. Kind of data set: Experiment 2: inhibition of NCI-H1417 cell proliferation (CellTiter-Glo, 10 days). It counts as cell-based. As to conditions: Homo sapiens, 240 h, 10 days incubation. In short, it runs like this:
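Cells at 1000 per well exposed to 10-point 3-fold dilutions from 10 μM top concentration for 10 days. Viability by CellTiter-Glo luminescence; inhibition normalized to max/min controls, IC50 from four-parameter fit.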
(In general: ATP-based viability assays read luminescence as a measure of living cells.)

Counter-ions that a name gives are not always drawn. Like-named read-outs stand apart in the source and are kept apart here.

One may read the IC50 as the point on the concentration scale where inhibition reaches its midpoint. In turn, `COc1ccc(-c2sc(C(=O)N3CC[C@@H](N)C3)cc2-c2ccc(C#N)c(F)c2)cc1F` [Hydrochloride of compound 12] came in with an IC50 at human LSD1 of 0.393 µM.

Broadly, the bioavailability is dose-corrected exposure relative to a reference, in per cent. For the compound `COc1ccc(-c2sc(C(=O)N3C4CCC3C(N)C4)cc2-c2ccc(C#N)c(F)c2)cc1F` (racemic) [Hydrochloride of compound 2], in data set [1] (female CD-1 mice), the clearance was 19.6 mL/min/kg, the half-life is 5.23 h, the Vd worked out at 7.9 L/kg and the bioavailability was determined as 47.7%. In data set [1] (female CD-1 mice), the AUC(0-t) amounted to 1.43 µM·h and the Cmax was 209 nM. In addition, the IC50 in the data set with NCI-H1417 cells turned out to be 0.00175 µM. Also, at human LSD1, it took 0.122 µM to reach half-maximal inhibition (IC50).

Consider `COc1ccc(-c2sc(C(=O)NC3CC4CCC3N4)cc2-c2ccc(C#N)c(F)c2)cc1F` (stereo not shown) [Hydrochloride of compound 15], for which the IC50 at human LSD1 amounted to 0.31 µM.

As to `COc1ccc(-c2sc(C(=O)N3CC4CNCC4C3)cc2-c2ccc(C#N)c(F)c2)cc1F` (stereo not shown) [Hydrochloride of compound 9], the IC50 in the data set with NCI-H1417 cells amounted to 0.0158 µM; at human LSD1, 0.118 µM.

In the case of `COc1ccc(-c2sc(C(=O)N3CCCC[C@@H](N)C3)cc2-c2ccc(C#N)c(F)c2)cc1F` [Hydrochloride of compound 8], the IC50 with NCI-H1417 cells amounted to 0.00873 µM; against human LSD1, 0.12 µM.

In the case of `COc1ccc(-c2sc(C(=O)N3CCC4(CCNC4)CC3)cc2-c2ccc(C#N)c(F)c2)cc1F` [Hydrochloride of compound 10], the IC50 was determined as 0.0224 µM with NCI-H1417 cells and 0.192 µM against human LSD1.

Consider `COc1ccc(-c2sc(C(=O)N3CCC[C@@H](N)C3)cc2-c2ccc(C#N)c(F)c2)cc1F` [Hydrochloride of compound 1], for which, in data set [1] (female CD-1 mice), the clearance turned out to be 17.8 mL/min/kg, the half-life was 5.59 h, the Vd turned out to be 7.66 L/kg and the bioavailability is 47.2%. Further, in data set [1] (female CD-1 mice), the AUC(0-t) came to 1.56 µM·h and the Cmax came out at 245 nM. In data set [1] (male CD-1 mice), the clearance was 16.7 mL/min/kg, the half-life is 6.13 h, the Vd is 8.33 L/kg and the bioavailability came out at 53.9%. Also, in data set [1] (male CD-1 mice), the AUC(0-t) came out at 2.24 µM·h and the Cmax is 176 nM. Further, the IC50 with NCI-H1417 cells came to 0.00688 µM. In addition, the IC50 against human LSD1 is 0.082 µM.

As for `COc1ccc(-c2sc(C(=O)N3CCCNCC3)cc2-c2ccc(C#N)c(F)c2)cc1F` [Hydrochloride of compound 6], in data set [1] (female CD-1 mice), the clearance was found to be 18 mL/min/kg, the half-life is 5.37 h, the Vd came out at 7.76 L/kg and the bioavailability is 64%. In addition, in data set [1] (female CD-1 mice), the AUC(0-t) came out at 2.52 µM·h and the Cmax was found to be 222 nM. Further, the IC50 in the data set with NCI-H1417 cells was 0.0379 µM. Moreover, the IC50 against human LSD1 was found to be 0.112 µM.

For the compound `COc1ccc(-c2sc(C(=O)N3CCC(N)CC3)cc2-c2ccc(C#N)c(F)c2)cc1F` [Hydrochloride of compound 4], the IC50 turned out to be 0.0301 µM with NCI-H1417 cells and 0.11 µM against human LSD1.

`COc1ccc(-c2sc(C(=O)N3CCNCC3)cc2-c2ccc(C#N)c(F)c2)cc1F` [Hydrochloride of compound 5]: at human LSD1, the IC50 is 0.345 µM. In other words, the sub-micromolar range.

On to `COc1ccc(-c2sc(C(=O)N3CC[C@H](N)C3)cc2-c2ccc(C#N)c(F)c2)cc1F` [Hydrochloride of compound 7], for which, in data set [1] (female CD-1 mice), the clearance turned out to be 20.9 mL/min/kg, the half-life is 3.74 h, the Vd was 6.19 L/kg and the bioavailability was determined as 52.4%. Further, in data set [1] (female CD-1 mice), the AUC(0-t) was found to be 1.89 µM·h and the Cmax came out at 176 nM. For the same compound, in the data set with NCI-H1417 cells, the midpoint of inhibition, the IC50, lay at 0.0204 µM. This compound also gave an IC50 on human LSD1 of 0.121 µM.
